Source: patent US20240158392A1 (Janssen Biotech, Inc., priority 2021, published 2024)

Target: SIK2 (Homo sapiens, UniProt Q9H0K1)
Assay: SIK2 Enzymatic Assay High Version 2 (High ATP)
Type: biochemical
Settings: not given
Summary of the method: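 At room temperature, enzyme (6 nM, 2× final) was preincubated with compound for 30 min, then 6 mM ATP and 400 μM HDAC5tide (both 2× final) were added for 2 h. ADP formed was measured by ADP-Glo Max (2 h reagent, 1 h detection) using luminescence.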

Chain of SIK2 (Q9H0K1 whole entry, species assumed): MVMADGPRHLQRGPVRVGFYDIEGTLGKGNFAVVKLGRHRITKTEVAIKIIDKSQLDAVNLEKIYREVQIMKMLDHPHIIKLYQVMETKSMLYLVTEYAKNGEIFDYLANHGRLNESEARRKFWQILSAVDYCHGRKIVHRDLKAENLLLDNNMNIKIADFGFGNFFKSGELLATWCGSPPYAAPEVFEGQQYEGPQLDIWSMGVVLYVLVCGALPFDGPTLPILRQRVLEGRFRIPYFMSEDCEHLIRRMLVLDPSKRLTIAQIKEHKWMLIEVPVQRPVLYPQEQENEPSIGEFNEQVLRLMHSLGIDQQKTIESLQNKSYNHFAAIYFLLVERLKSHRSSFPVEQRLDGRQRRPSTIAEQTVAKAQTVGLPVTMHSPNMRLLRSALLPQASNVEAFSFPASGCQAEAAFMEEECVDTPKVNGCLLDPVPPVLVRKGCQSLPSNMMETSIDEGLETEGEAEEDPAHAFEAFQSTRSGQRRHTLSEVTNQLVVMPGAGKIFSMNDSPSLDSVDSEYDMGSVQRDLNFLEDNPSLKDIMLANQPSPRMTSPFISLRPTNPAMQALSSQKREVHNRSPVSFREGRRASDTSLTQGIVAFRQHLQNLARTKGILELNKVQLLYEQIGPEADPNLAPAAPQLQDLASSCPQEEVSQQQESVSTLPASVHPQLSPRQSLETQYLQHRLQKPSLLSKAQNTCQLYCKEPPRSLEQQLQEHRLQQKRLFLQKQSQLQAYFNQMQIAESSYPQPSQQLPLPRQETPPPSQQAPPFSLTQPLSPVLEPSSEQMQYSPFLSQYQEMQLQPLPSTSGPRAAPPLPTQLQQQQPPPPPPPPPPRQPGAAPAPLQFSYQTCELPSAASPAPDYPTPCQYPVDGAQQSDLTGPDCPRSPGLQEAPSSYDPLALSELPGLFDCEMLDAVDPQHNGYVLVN

SMILES	IC50
CC(=O)N1[C@@H]2COC[C@H]1C[C@@H](Oc1cnc(C)cc1-c1ccn3nc(Nc4cc(C)nc(C)n4)cc3c1)C2 [Example 627, 1-((1R,5S,7s)-7-((4-(2-((2,6-dimethylpyrimidin-4-yl)amino)pyrazolo[1,5-a]pyridin-5-yl)-6-methylpyridin-3-yl)oxy)-3-oxa-9-azabicyclo[3.3.1]nonan-9-yl)ethan-1-one]	0.0651 µM
Cc1cc(-c2ccn3nc(Nc4ccccn4)cc3c2)c(OC[C@@H]2CNCCO2)cn1 [Example 130, 5-[2-methyl-5-[[(2S)-morpholin-2-yl]methoxy]-4-pyridyl]-N-(2-pyridyl)pyrazolo[1,5-a]pyridin-2-amine]	0.00429 µM
CNC(=O)c1ccnc(Nc2cc3cc(-c4cc(C)ncc4O[C@H]4C[C@H]5COC[C@@H](C4)N5)ccn3n2)c1 [Example 172, 2-((5-(5-(((1R,5S,7s)-3-oxa-9-azabicyclo[3.3.1]nonan-7-yl)oxy)-2-methylpyridin-4-yl)pyrazolo[1,5-a]pyridin-2-yl)amino)-N-methylisonicotinamide]	0.000876 µM
Cc1cc(-c2ccn3nc(Nc4ccnc(C)n4)cc3c2)c(O[C@H]2C[C@H]3COC[C@@H](C2)N3C)cn1 [Example 410, 5-[2-methyl-5-[[(1R,5S,7s)-9-methyl-3-oxa-9-azabicyclo[3.3.1]nonan-7-yl]oxy]-4-pyridyl]-N-(2-methylpyrimidin-4-yl)pyrazolo[1,5-a]pyridin-2-amine]	< 0.000847 µM
Cc1cc(-c2ccn3nc(Nc4ccn(C)n4)cc3c2)c(O[C@H]2C[C@H]3COC[C@@H](C2)N3)cn1 [Example 125, endo-5-(5-(((1R,5S,7s)-3-oxa-9-azabicyclo[3.3.1]nonan-7-yl)oxy)-2-methylpyridin-4-yl)-N-(1-methyl-1H-pyrazol-3-yl)pyrazolo[1,5-a]pyridin-2-amine]	< 0.000847 µM
CCCNC(=O)c1ccc(Nc2cc3cc(-c4cc(C)ncc4O[C@H]4C[C@H]5COC[C@@H](C4)N5)ccn3n2)nc1 [Example 377, 6-[[5-[2-methyl-5-[[(1R,5S,7s)-3-oxa-9-azabicyclo[3.3.1]nonan-7-yl]oxy]-4-pyridyl]pyrazolo[1,5-a]pyridin-2-yl]amino]-N-propyl-pyridine-3-carboxamide]	< 0.000847 µM
Cc1cc(-c2ccn3nc(Nc4ccc(C(=O)O)cn4)cc3c2)c(O[C@H]2C[C@H]3COC[C@@H](C2)N3)cn1 [Example 370, 6-[[5-[2-methyl-5-[[(1S,5R,7s)-3-oxa-9-azabicyclo[3.3.1]nonan-7-yl]oxy]-4-pyridyl]pyrazolo[1,5-a]pyridin-2-yl]amino]pyridine-3-carboxylic Acid]	< 0.000847 µM
Cc1cnc(Nc2cc3cc(-c4cc(C)ncc4O[C@H]4C[C@H]5COC[C@@H](C4)N5C)ccn3n2)cn1 [Example 416, 5-[2-methyl-5-[[(1S,5R,7s)-9-methyl-3-oxa-9-azabicyclo[3.3.1]nonan-7-yl]oxy]-4-pyridyl]-N-(5-methylpyrazin-2-yl)pyrazolo[1,5-a]pyridin-2-amine]	< 0.000847 µM

Same assay, conditions: enzyme 6 nM, 6 mM ATP and 400 μM HDAC5tide (each 2× final concentration); 30 minutes pre-incubation, 2 hours; ADP-Glo Max luminescence; read-out: SIK2 high ATP IC50 (μM) (Test Example 2)

SMILES	IC50
CC#Cc1cc(-c2ccn3nc(NC(=O)C4CC4)cc3c2)c(OCC2(N)COC2)cn1 [Example 433, N-[5-[5-[(3-aminooxetan-3-yl)methoxy]-2-prop-1-ynyl-4-pyridyl]pyrazolo[1,5-a]pyridin-2-yl]cyclopropanecarboxamide]	< 0.000847 µM
Cc1cc(-c2ccn3nc(Nc4cnc(C(F)F)cn4)cc3c2)c(OC[C@H]2OCC[C@@H]2O)cn1 [Example 295, (2R,3S)-2-[[4-[2-[[5-(difluoromethyl)pyrazin-2-yl]amino]pyrazolo[1,5-a]pyridin-5-yl]-6-methyl-3-pyridyl]oxymethyl]tetrahydrofuran-3-ol]	0.0176 µM
CC#Cc1cc(-c2ccn3nc(Nc4cc(C)nc(C)n4)cc3c2)c(OC[C@]23CN[C@H](CO2)C3)cn1 [Example 302, N-(2,6-dimethylpyrimidin-4-yl)-5-[5-[[(1S,4S)-5-oxa-2-azabicyclo[2.2.1]heptan-4-yl]methoxy]-2-prop-1-ynyl-4-pyridyl]pyrazolo[1,5-a]pyridin-2-amine]	0.000975 µM
Cc1cc(-c2ccn3nc(Nc4cc(C)c(=O)n(C5CC5)n4)cc3c2)c(OC[C@@H]2COCCO2)cn1 [Example 561, 2-cyclopropyl-6-[[5-[5-[[(2S)-1,4-dioxan-2-yl]methoxy]-2-methyl-4-pyridyl]pyrazolo[1,5-a]pyridin-2-yl]amino]-4-methyl-pyridazin-3-one]	0.0619 µM
Cc1cc(-c2ccn3nc(Nc4cc(C)c(=O)n(CC5CC5)n4)cc3c2)c(OCC(C)(C)O)cn1 [Example 265, 2-(cyclopropylmethyl)-6-[[5-[5-(2-hydroxy-2-methyl-propoxy)-2-methyl-4-pyridyl]pyrazolo[1,5-a]pyridin-2-yl]amino]-4-methyl-pyridazin-3-one]	0.00366 µM
Cc1cc(-c2ccn3nc(Nc4cc(C)nc(C5CC5)n4)cc3c2)c(OCC(C)(C)C#N)cn1 [Example 310, 3-[[4-[2-[(2-cyclopropyl-6-methyl-pyrimidin-4-yl)amino]pyrazolo[1,5-a]pyridin-5-yl]-6-methyl-3-pyridyl]oxy]-2,2-dimethyl-propanenitrile]	< 0.000847 µM
COc1ccccc1COc1cnc(C)cc1-c1ccn2nc(Nc3cc(C)nc(C)n3)cc2c1 [Example 271, N-(2,6-dimethylpyrimidin-4-yl)-5-[5-[(2-methoxyphenyl)methoxy]-2-methyl-4-pyridyl]pyrazolo[1,5-a]pyridin-2-amine]	0.0234 µM
CC(C)(C#N)COc1cnc(OCC(F)(F)F)cc1-c1ccn2nc(NC(=O)C3CC3)cc2c1 [Example 669, N-[5-[5-(2-cyano-2-methyl-propoxy)-2-(2,2,2-trifluoroethoxy)-4-pyridyl]pyrazolo[1,5-a]pyridin-2-yl]cyclopropanecarboxamide]	0.0526 µM
Cc1cc(-c2ccn3nc(Nc4cnn(C(C)C)c4)cc3c2)c(OC2CN(C)C2)cn1 [Example 511, N-(1-isopropylpyrazol-4-yl)-5-[2-methyl-5-(1-methylazetidin-3-yl)oxy-4-pyridyl]pyrazolo[1,5-a]pyridin-2-amine]	0.0683 µM
COc1ccnc(Nc2cc3cc(-c4cc(OC(F)F)ncc4OCC(C)(C)C#N)ccn3n2)n1 [Example 698, 3-[[6-(difluoromethoxy)-4-[2-[(4-methoxypyrimidin-2-yl)amino]pyrazolo[1,5-a]pyridin-5-yl]-3-pyridyl]oxy]-2,2-dimethyl-propanenitrile]	0.0018 µM
Cc1cc(-c2ccn3nc(Nc4cc(C)c(=O)n(C5CC5)n4)cc3c2)c(O[C@H]2CC[C@H](O)CC2)cn1 [Example 318, 2-cyclopropyl-6-[[5-[5-(4-hydroxycyclohexoxy)-2-methyl-4-pyridyl]pyrazolo[1,5-a]pyridin-2-yl]amino]-4-methyl-pyridazin-3-one]	< 0.000847 µM
Cc1cc(-c2ccn3nc(Nc4cc(C)nc(C)n4)cc3c2)c(O[C@H]2C[C@@H](N)C2)cn1 [Example 314, 5-[5-(3-aminocyclobutoxy)-2-methyl-4-pyridyl]-N-(2,6-dimethylpyrimidin-4-yl)pyrazolo[1,5-a]pyridin-2-amine]	0.0129 µM
COC(=O)c1ccc(Nc2cc3cc(-c4cc(C)ncc4OCC(C)(C)O)ccn3n2)cc1OC [Example 642, methyl 4-[[5-[5-(2-hydroxy-2-methyl-propoxy)-2-methyl-4-pyridyl]pyrazolo[1,5-a]pyridin-2-yl]amino]-2-methoxy-benzoate]	0.00171 µM
CC(=O)O[C@H]1CC[C@H](Oc2nnc(C)cc2-c2ccn3nc(Nc4cc(C)nc(C)n4)cc3c2)CC1 [Example 487, [4-[4-[2-[(2,6-dimethylpyrimidin-4-yl)amino]pyrazolo[1,5-a]pyridin-5-yl]-6-methyl-pyridazin-3-yl]oxycyclohexyl] acetate]	0.0238 µM
Cc1cc(-c2ccn3nc(NC(=O)C4CC4)cc3c2)c(OCC2(c3ccccc3)CNC2)cn1 [Example 470, N-[5-[2-methyl-5-[(3-phenylazetidin-3-yl)methoxy]-4-pyridyl]pyrazolo[1,5-a]pyridin-2-yl]cyclopropanecarboxamide]	0.00511 µM
Cc1cc(-c2ccn3nc(Nc4ccc(C5CC5)nn4)cc3c2)c(OC[C@@]23CN[C@@H](CO2)C3)cn1 [Example 255, N-(6-cyclopropylpyridazin-3-yl)-5-[2-methyl-5-[[(1R,4R)-5-oxa-2-azabicyclo[2.2.1]heptan-4-yl]methoxy]-4-pyridyl]pyrazolo[1,5-a]pyridin-2-amine]	0.00704 µM
Cc1cc(-c2ccn3nc(NC(=O)[C@@H]4C[C@H]4C)cc3c2)c(OC[C@]23C[C@H](CO2)N(C)C3)cn1 [Example 250, (1R,2R)-2-methyl-N-[5-[2-methyl-5-[[(1R,4R)-2-methyl-5-oxa-2-azabicyclo[2.2.1]heptan-4-yl]methoxy]-4-pyridyl]pyrazolo[1,5-a]pyridin-2-yl]cyclopropanecarboxamide]	0.0217 µM
Cc1cc(-c2ccn3nc(Nc4cc(C)nc(C)n4)cc3c2)c(OC[C@@H]2CC3(CCC3)CO2)cn1 (single isomer, unassigned) [Example 220, (*S)-5-(5-((6-oxaspiro[3.4]octan-7-yl)methoxy)-2-methylpyridin-4-yl)-N-(2,6-dimethylpyrimidin-4-yl)pyrazolo[1,5-a]pyridin-2-amine]	0.0142 µM
Cc1cc(-c2ccn3nc(Nc4cc(C)nc(C)n4)cc3c2)c(OC[C@@H](O)C2(C)CC2)cn1 (single isomer, unassigned) [Example 549, (*S)-2-[[4-[2-[(2,6-dimethylpyrimidin-4-yl)amino]pyrazolo[1,5-a]pyridin-5-yl]-6-methyl-3-pyridyl]oxy]-1-(1-methylcyclopropyl)ethanol]	0.0416 µM
CO[C@H]1CN(C)C[C@@H]1COc1cnc(C)cc1-c1ccn2nc(NC(=O)C3CC3)cc2c1 (racemic) [Example 571, (3RS, 4RS)—N-[5-[5-[(4-methoxy-1-methyl-pyrrolidin-3-yl)methoxy]-2-methyl-4-pyridyl]pyrazolo[1,5-a]pyridin-2-yl]cyclopropanecarboxamide]	0.165 µM
